For assay [1], the target named is EGFR L858R/T790M/C797S (Homo sapiens, UniProt P00533, C797S/L858R/T790M). In words: Biochemical EGFR kinase assay (Lance Ultra TR-FRET), triple mutant L858R/T790M/C797S. An outline of the steps:
(§1)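 Enzyme reactions lasted 1 hour at room temperature with test compounds between 0.003 and 10 μM, followed by 10 mM EDTA quench.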

For assay [2], the target named is EGFR wildtype (WT) (Homo sapiens, UniProt P00533). In words: Biochemical EGFR kinase assay (Lance Ultra TR-FRET), wildtype. An outline of the steps: as §1
Chain of EGFR wildtype (WT) (P00533 25-1210): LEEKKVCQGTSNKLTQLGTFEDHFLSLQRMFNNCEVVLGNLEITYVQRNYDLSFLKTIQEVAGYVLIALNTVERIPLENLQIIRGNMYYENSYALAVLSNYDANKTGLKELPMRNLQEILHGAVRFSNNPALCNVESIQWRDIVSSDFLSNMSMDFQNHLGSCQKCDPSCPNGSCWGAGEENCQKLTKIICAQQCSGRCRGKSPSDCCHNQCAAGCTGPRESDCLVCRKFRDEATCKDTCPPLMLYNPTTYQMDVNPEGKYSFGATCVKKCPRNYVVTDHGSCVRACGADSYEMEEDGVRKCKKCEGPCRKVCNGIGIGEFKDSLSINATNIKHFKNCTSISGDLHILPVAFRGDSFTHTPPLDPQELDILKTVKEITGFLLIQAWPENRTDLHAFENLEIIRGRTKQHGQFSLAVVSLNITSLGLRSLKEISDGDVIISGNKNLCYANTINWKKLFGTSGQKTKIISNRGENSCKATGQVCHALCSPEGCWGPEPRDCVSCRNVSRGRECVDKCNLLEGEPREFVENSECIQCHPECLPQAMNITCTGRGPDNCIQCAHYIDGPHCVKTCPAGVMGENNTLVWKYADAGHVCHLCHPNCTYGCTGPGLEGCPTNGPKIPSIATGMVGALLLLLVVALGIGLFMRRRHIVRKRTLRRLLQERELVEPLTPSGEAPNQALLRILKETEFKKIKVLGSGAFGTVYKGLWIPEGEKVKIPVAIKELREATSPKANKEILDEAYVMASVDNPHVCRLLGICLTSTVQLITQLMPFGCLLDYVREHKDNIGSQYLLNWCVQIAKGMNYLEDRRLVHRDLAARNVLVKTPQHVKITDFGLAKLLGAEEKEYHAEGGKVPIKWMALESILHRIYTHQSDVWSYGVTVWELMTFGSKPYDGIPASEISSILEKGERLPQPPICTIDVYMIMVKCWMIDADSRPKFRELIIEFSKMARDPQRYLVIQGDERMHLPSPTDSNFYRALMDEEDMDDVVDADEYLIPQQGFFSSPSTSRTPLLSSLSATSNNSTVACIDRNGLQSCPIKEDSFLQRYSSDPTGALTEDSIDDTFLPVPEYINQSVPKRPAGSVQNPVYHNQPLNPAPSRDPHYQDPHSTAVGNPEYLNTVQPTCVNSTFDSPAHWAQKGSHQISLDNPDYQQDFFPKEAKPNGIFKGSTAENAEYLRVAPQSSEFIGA
Background: TR-FRET usually uses a lanthanide donor and a delayed reading to cut background.

Assay [3] deals with EGFR L858R/C797S (Homo sapiens, UniProt P00533, C797S/L858R). Put plainly: Biochemical EGFR kinase assay (Lance Ultra TR-FRET), double mutant L858R/C797S. In outline:
as §1

Assay [4] concerns the target EGFR del19/T790M/C797S (Homo sapiens, UniProt P00533, C797S/DEL746-750/T790M). Put plainly: Biochemical EGFR kinase assay (Lance Ultra TR-FRET), triple mutant del19/T790M/C797S. In outline: as §1
Assay [5] addresses EGFR del19/C797S (Homo sapiens, UniProt P00533, C797S/DEL746-750). Put plainly: Biochemical EGFR kinase assay (Lance Ultra TR-FRET), double mutant del19/C797S. As to the method: Biochemical EGFR kinase assays were conducted using Lance Ultra time-resolved fluorescence resonance energy transfer (TR-FRET) technology from Perkin-Elmer. Compounds of the invention were initially diluted to 20 mM in 100% DMSO for storage and made into kinase buffer solution to create a compound concentration ranging from 0.003 μM and 10 μM.
Each kinase reactions were incubated at room temperature for 1 hour and then stopped by the addition of 4 μL of stop solution (10 mM EDTA). The specific Europium-labeled-anti-phosphopeptide antibody (PerkinElmer, AD0069) diluted in LANCE detection buffer was then added to a final concentration of 2 nM. After 60 minutes incubation at room temperature the LANCE signal was measured on an EnVision Multilabel Reader (Perkin-Elmer). Excitation wavelength was set at 320 nm and emission monitored at 615 nm (donor) and 665 nm (acceptor). The IC50 values were determined using GraphPad prism software (GraphPad Software, Inc., San Diego, CA, USA).

The mark [6] stands for this setting: Km ATP, read-out: IC50 L858R/T790M/C797S (nM) Km ATP.
The mark [7] stands for this setting: Km ATP, read-out: IC50 WT (nM) Km ATP.
Where [8] appears, read: Km ATP, read-out: IC50 L858R/C797S (nM) Km ATP.
Setting [9] is: Km ATP, read-out: IC50 del19/T790M/C797S (nM) Km ATP.
Setting [10] is: Km ATP, read-out: IC50 del19/C797S (nM) Km ATP.
[11] abbreviates: IC50 L858R/T790M/C797S (nM) 100 μM ATP, 100 μM ATP.
Where [12] appears, read: IC50 WT (nM) 100 μM ATP, 100 μM ATP.
The mark [13] stands for this setting: IC50 L858R/C797S (nM) 100 μM ATP, 100 μM ATP.
Where [14] appears, read: IC50 del19/T790M/C797S (nM) 100 μM ATP, 100 μM ATP.
[15] abbreviates: IC50 del19/C797S (nM) 100 μM ATP, 100 μM ATP.

The structures appear in SMILES notation. Where two headings read alike, the source gives them in different places. Some results are limits rather than exact numbers.

Chain of EGFR L858R/T790M/C797S (P00533 25-1210 T790M/C797S/L858R): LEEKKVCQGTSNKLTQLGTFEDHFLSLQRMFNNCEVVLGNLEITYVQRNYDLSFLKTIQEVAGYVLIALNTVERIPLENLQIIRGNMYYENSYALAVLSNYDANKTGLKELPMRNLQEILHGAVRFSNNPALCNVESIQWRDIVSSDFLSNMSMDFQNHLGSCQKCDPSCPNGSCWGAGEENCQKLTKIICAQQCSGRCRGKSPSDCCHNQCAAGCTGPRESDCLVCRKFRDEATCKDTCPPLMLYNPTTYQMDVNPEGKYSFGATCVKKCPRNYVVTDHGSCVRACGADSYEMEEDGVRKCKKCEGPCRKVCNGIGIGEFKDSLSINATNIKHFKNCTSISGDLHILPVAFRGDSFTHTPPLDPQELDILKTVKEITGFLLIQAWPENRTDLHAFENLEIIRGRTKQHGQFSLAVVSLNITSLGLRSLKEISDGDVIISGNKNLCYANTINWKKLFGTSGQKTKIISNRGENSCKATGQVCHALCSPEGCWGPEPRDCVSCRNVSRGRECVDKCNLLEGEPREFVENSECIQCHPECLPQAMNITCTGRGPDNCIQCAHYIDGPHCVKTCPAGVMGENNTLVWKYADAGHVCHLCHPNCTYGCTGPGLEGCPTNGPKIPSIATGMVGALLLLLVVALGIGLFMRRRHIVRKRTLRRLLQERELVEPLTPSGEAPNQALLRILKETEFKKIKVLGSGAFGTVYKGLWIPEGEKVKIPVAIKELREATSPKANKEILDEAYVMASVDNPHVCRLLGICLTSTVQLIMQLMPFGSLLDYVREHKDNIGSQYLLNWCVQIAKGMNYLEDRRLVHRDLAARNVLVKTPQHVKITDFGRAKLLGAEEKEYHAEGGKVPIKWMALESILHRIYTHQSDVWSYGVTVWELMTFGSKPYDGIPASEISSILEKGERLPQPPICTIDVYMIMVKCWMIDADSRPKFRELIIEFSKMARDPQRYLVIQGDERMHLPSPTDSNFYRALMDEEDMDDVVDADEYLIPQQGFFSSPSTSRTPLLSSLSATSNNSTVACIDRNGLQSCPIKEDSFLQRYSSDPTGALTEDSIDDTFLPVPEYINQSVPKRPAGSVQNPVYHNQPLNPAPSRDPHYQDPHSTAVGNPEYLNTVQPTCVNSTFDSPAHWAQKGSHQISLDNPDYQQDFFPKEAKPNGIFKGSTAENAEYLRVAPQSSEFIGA
Chain of EGFR L858R/C797S (P00533 25-1210 C797S/L858R): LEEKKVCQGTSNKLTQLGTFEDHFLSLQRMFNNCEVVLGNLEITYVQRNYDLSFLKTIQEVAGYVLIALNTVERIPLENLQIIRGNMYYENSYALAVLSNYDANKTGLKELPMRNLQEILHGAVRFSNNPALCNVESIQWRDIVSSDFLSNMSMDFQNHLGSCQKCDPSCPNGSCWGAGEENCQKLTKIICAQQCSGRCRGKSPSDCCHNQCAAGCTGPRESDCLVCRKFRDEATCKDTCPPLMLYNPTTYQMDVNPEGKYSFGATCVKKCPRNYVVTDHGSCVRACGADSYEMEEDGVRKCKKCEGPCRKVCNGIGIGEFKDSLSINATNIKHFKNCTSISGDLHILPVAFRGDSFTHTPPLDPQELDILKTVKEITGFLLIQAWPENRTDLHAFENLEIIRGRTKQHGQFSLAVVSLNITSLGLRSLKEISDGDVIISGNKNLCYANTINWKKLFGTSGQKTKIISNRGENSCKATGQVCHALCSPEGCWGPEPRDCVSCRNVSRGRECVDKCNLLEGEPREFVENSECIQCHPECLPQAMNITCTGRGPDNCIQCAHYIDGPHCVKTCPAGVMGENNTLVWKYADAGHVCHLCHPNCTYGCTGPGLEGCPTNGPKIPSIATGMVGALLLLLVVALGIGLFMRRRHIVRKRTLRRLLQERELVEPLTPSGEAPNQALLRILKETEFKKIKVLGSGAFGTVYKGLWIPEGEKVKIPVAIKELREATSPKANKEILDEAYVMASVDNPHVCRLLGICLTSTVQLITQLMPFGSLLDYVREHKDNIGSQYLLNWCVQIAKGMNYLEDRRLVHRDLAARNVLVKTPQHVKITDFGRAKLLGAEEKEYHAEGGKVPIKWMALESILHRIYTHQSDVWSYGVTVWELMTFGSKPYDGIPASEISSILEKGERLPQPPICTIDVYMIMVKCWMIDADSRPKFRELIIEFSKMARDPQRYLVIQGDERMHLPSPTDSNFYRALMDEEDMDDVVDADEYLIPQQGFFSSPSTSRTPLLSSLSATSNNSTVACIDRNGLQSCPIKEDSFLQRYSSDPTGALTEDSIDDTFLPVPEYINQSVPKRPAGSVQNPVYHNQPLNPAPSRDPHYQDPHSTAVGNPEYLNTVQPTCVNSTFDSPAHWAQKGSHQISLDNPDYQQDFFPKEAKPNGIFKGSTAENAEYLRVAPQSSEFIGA
Chain of EGFR del19/C797S (P00533 with tags, fused parts or gaps DEL746-750/C797S): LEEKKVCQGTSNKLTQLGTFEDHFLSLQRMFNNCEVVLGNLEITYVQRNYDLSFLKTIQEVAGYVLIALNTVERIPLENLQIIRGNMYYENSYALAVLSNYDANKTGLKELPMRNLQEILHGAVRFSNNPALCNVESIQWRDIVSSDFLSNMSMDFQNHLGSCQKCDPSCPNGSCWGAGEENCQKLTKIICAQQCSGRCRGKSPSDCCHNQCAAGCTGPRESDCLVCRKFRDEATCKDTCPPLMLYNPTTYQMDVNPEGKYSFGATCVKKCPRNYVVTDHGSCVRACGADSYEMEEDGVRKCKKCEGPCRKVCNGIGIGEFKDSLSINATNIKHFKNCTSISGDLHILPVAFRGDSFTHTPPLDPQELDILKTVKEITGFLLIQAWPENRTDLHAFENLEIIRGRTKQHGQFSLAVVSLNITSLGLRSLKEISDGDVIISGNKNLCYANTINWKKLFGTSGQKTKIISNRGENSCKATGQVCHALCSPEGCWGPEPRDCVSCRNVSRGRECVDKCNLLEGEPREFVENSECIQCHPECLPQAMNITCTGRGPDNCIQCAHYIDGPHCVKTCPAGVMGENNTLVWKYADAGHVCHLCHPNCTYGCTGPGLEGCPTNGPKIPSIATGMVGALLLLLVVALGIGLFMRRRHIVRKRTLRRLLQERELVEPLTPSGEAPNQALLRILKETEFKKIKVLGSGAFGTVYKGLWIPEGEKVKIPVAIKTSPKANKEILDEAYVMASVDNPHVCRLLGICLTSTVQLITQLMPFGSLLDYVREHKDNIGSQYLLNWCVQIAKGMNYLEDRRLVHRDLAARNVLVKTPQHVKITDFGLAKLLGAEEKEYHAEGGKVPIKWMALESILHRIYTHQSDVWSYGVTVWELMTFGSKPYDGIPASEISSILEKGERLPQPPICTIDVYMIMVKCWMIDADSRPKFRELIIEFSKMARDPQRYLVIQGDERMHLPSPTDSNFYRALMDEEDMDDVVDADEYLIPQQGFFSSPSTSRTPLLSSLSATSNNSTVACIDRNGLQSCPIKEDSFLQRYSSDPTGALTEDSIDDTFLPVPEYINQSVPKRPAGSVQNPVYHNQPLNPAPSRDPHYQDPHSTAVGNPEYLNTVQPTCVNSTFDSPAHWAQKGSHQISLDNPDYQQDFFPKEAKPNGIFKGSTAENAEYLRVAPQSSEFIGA

With `Cn1nc(-c2cnc(Nc3ccnc(-c4cnn(S(=O)(=O)C5CC5)c4)n3)cc2NN2CCC(O)CC2)cc1C(F)(F)F` [Example 160, 1-((2-((2-(1-(Cyclopropylsulfonyl)-1H-pyrazol-4-yl)pyrimidin-4-yl)amino)-5-(1-methyl-5-(trifluoromethyl)-1H-pyrazol-3-yl)pyridin-4-yl)amino)piperidin-4-ol], the IC50 was determined as 0.5 nM in assay [1] (setting [6]); 8.3 nM in assay [2] (setting [7]); 1 nM in assay [3] (setting [8]); 1 nM in assay [4] (setting [9]); 2 nM in assay [5] (setting [10]).

In the case of `O=S(=O)(C1CC1)n1cc(-c2nccc(Nc3cc(N[C@H]4CC[C@@H](CO)CC4)c(-c4ccn(C5CC5)n4)cn3)n2)cn1` [Example 297, ((1s,4s)-4-((5-(1-Cyclopropyl-1H-pyrazol-3-yl)-2-((2-(1-(cyclopropylsulfonyl)-1H-pyrazol-4-yl)pyrimidin-4-yl)amino)pyridin-4-yl)amino)cyclohexyl)methanol], the IC50 in assay [1] (setting [11]) came out at 0.5 nM; in assay [1] (setting [6]), 0.1 nM; in assay [2] (setting [12]), 582 nM; in assay [2] (setting [7]), 1.6 nM; in assay [3] (setting [13]), 3.9 nM; in assay [3] (setting [8]), 0.3 nM. For the same compound, the IC50 in assay [4] (setting [14]) came out at 0.2 nM; in assay [4] (setting [9]) it was 0.1 nM; in assay [5] (setting [15]) it was 0.7 nM; in assay [5] (setting [10]), 0.5 nM.

Turning to `CN(CC(F)F)C[C@H]1CC[C@@H](Nc2cc(Nc3ccnc(-c4cnn(S(=O)(=O)C5CC5)c4)n3)ncc2-c2ccn(C(F)F)n2)CC1` [Example 206, N^2-(2-(1-(Cyclopropylsulfonyl)-1H-pyrazol-4-yl)pyrimidin-4-yl)-N^4-((1s,4s)-4-(((2,2-difluoroethyl)(methyl)amino)methyl)cyclohexyl)-5-(1-(difluoromethyl)-1H-pyrazol-3-yl)pyridine-2,4-diamine], the IC50 was 13.8 nM in assay [1] (setting [11]); greater than 10000 nM in assay [2] (setting [12]); 206 nM in assay [3] (setting [13]); 22.1 nM in assay [4] (setting [14]); 26.9 nM in assay [5] (setting [15]).

In the case of `CN(C)C[C@H]1CC[C@@H](Nc2cc(Nc3ccnc(-c4cnn(S(=O)(=O)C5CC5)c4)n3)ncc2-c2cc(C(F)(F)F)n(C)n2)CC1` [Example 256, N^2-(2-(1-(Cyclopropylsulfonyl)-1H-pyrazol-4-yl)pyrimidin-4-yl)-N^4-((1s,4s)-4-((dimethylamino)methyl)cyclohexyl)-5-(1-methyl-5-(trifluoromethyl)-1H-pyrazol-3-yl)pyridine-2,4-diamine], the IC50 stood at 0.5 nM in assay [1] (setting [11]); 0.4 nM in assay [1] (setting [6]); 123 nM in assay [2] (setting [12]); 0.5 nM in assay [2] (setting [7]); 7.5 nM in assay [3] (setting [13]); 1.4 nM in assay [4] (setting [9]). Further, the IC50 in assay [5] (setting [15]) stood at 2 nM; in assay [5] (setting [10]) it was 0.8 nM.

Consider `CN1CCC(n2ccc(-c3cnc(Nc4ccnc(-c5cnn(S(=O)(=O)C6CC6)c5)n4)cc3N[C@H]3CC[C@@](C)(O)CC3)n2)CC1` [Example 287, (1s,4s)-4-((2-((2-(1-(Cyclopropylsulfonyl)-1H-pyrazol-4-yl)pyrimidin-4-yl)amino)-5-(1-(1-methylpiperidin-4-yl)-1H-pyrazol-3-yl)pyridin-4-yl)amino)-1-methylcyclohexan-1-ol], for which the IC50 in assay [1] (setting [6]) turned out to be 0.1 nM; in assay [2] (setting [7]) it was 0.3 nM; in assay [3] (setting [8]), 0.1 nM; in assay [4] (setting [9]) it was 0.2 nM; in assay [5] (setting [10]), 0.3 nM.

As to `C[C@]1(O)CC[C@@H](Nc2nc(Nc3ccnc(-c4cnn(S(=O)(=O)C5CC5)c4)c3)ncc2-c2ccn(C(F)F)n2)CC1` [Example 355, (1s,4s)-4-((2-((2-(1-(Cyclopropylsulfonyl)-1H-pyrazol-4-yl)pyridin-4-yl)amino)-5-(1-(difluoromethyl)-1H-pyrazol-3-yl)pyrimidin-4-yl)amino)-1-methylcyclohexan-1-ol], the IC50 in assay [1] (Km ATP, read-out: IC50 L858R/T790M/C797S, Km ATP) was determined as 0.3 nM; in assay [2] (Km ATP, read-out: IC50 WT, Km ATP) it was 64.4 nM; in assay [3] (Km ATP, read-out: IC50 L858R/C797S, Km ATP) it was 13.3 nM; in assay [4] (Km ATP, read-out: IC50 del19/T790M/C797S, Km ATP), 0.7 nM; in assay [5] (Km ATP, read-out: IC50 del19/C797S, Km ATP), 11 nM.

Take `CN(C)CCCn1ccc(-c2cnc(Nc3ccnc(-c4cnn(S(=O)(=O)C5CC5)c4)n3)cc2NCC2(CO)COC2)n1` [Example 279, (3-(((2-((2-(1-(Cyclopropylsulfonyl)-1H-pyrazol-4-yl)pyrimidin-4-yl)amino)-5-(1-(3-(dimethylamino)propyl)-1H-pyrazol-3-yl)pyridin-4-yl)amino)methyl)oxetan-3-yl)methanol]: the IC50 is 0.4 nM in assay [1] (setting [11]); 0.3 nM in assay [1] (setting [6]); 4690 nM in assay [2] (setting [12]); 4.9 nM in assay [2] (setting [7]); 14.2 nM in assay [3] (setting [13]); 0.6 nM in assay [3] (setting [8]). Besides, the IC50 in assay [4] (setting [14]) is 0.3 nM; in assay [4] (setting [9]), 0.5 nM; in assay [5] (setting [15]), 1 nM; in assay [5] (setting [10]), 0.6 nM.

For `O=S(=O)(C1CC1)n1cc(-c2nccc(Nc3cc(N[C@H]4CC[C@@H](CO)CC4)c(-c4ccn(C(F)F)n4)cn3)n2)cn1` [Example 18, ((1s,4s)-4-((2-((2-(1-(Cyclopropylsulfonyl)-1H-pyrazol-4-yl)pyrimidin-4-yl)amino)-5-(1-(difluoromethyl)-1H-pyrazol-3-yl)pyridin-4-yl)amino)cyclohexyl)methanol], the IC50 in assay [1] (setting [11]) was 0.6 nM; in assay [1] (setting [6]) it was 0.2 nM; in assay [2] (setting [12]) it was greater than 10000 nM; in assay [2] (setting [7]) it was 3 nM; in assay [3] (setting [13]) it was 13 nM; in assay [3] (setting [8]) it was 1.9 nM. Further, the IC50 in assay [4] (setting [14]) amounted to 0.4 nM; in assay [4] (setting [9]), 0.3 nM; in assay [5] (setting [15]) it was 1.4 nM; in assay [5] (setting [10]) it was 0.9 nM.

Take `CC1(N)CCC(Oc2cc(Nc3ccnc(-c4cnn(S(=O)(=O)C5CC5)c4)n3)ncc2-c2cnn(C(F)F)c2)CC1` (stereo not drawn) [Example 74, N-(4-((4-Amino-4-methylcyclohexyl)oxy)-5-(1-(difluoromethyl)-1H-pyrazol-4-yl)pyridin-2-yl)-2-(1-(cyclopropylsulfonyl)-1H-pyrazol-4-yl)pyrimidin-4-amine]: the IC50 in assay [1] (setting [11]) was 25.2 nM; in assay [2] (setting [12]) it was greater than 10000 nM; in assay [3] (setting [13]) it was 1380 nM; in assay [4] (setting [14]), 8.3 nM; in assay [5] (setting [15]), 103 nM.

For `CC(C)(O)[C@H]1CC[C@@H](Nc2cc(Nc3ccnc(-c4cnn(S(=O)(=O)C5CC5)c4)n3)ncc2-c2cc3n(n2)CCCC3)CC1` [Example 61, 2-((1s,4s)-4-((2-((2-(1-(Cyclopropylsulfonyl)-1H-pyrazol-4-yl)pyrimidin-4-yl)amino)-5-(4,5,6,7-tetrahydropyrazolo[1,5-a]pyridin-2-yl)pyridin-4-yl)amino)cyclohexyl)propan-2-ol], the IC50 in assay [1] (setting [11]) stood at 2.4 nM; in assay [1] (setting [6]), 0.8 nM; in assay [2] (setting [12]), 2900 nM; in assay [2] (setting [7]) it was 7.9 nM; in assay [3] (setting [13]) it was 8.8 nM; in assay [3] (setting [8]) it was 2.9 nM. Also, the IC50 in assay [4] (setting [14]) worked out at 4.3 nM; in assay [4] (setting [9]) it was 2 nM; in assay [5] (setting [15]), 6.2 nM; in assay [5] (setting [10]), 1.9 nM.

Consider `FC(F)Cn1cc(-c2nccc(Nc3cc(N[C@H]4CC[C@@H](F)CC4)c(-c4ccn(C(F)F)n4)cn3)n2)cn1` [Example 161, N^2-(2-(1-(2,2-Difluoroethyl)-1H-pyrazol-4-yl)pyrimidin-4-yl)-5-(1-(difluoromethyl)-1H-pyrazol-3-yl)-N^4-((1s,4s)-4-fluorocyclohexyl)pyridine-2,4-diamine], for which the IC50 in assay [1] (setting [6]) was 2.4 nM; in assay [2] (setting [7]) it was 640 nM; in assay [3] (setting [8]), 60.6 nM; in assay [4] (setting [9]), 3.2 nM; in assay [5] (setting [10]), 276 nM.

Source of the values: patent US12258327B2, “5-membered heteroaryl-containing aminopyridine compounds as EGFR inhibitors” (YUHAN CORPORATION, priority 2021, dated 2025).
